Test results taken from patent US8592174B2, “Peptidase substrates” (bioMérieux, S.A., priority 2009, dated 2013).

Experiments:
Experiment in all cases: Peptidase detection on Columbia medium (Example 2)
Format in all cases: cell-based
Settings in all cases: 24 h 37° C.
[1] = test system: Candida albicans ATCC 90 028; parameters: key to Growth: NG: No growth; 0.5: weak growth; 1: moderate growth; 2: good growth; key to Fluo. / Color / Color post-acid.: —: no color
Protocol: (§1) The 6 media were distributed into Petri dishes 90 mm in diameter, in a proportion of 20 ml per dish.
(§2) Seventeen strains of microorganisms stemming from collections and belonging to various species of bacteria and yeasts are inoculated in spots of approximately 10 000 colony-forming units.
(§3) The media are incubated for 24 hours at 37° C., and then the colonies formed are examined visually, with or without the addition of acid and under a UV lamp at 365 nm.

[2] = test system: Candida glabrata NCPF 3 943; parameters: key to Growth: NG: No growth; 0.5: weak growth; 1: moderate growth; 2: good growth; key to Fluo. / Color / Color post-acid.: —: no color
Protocol: as §1, §2, §3

[3] = test system: Streptococcus pyogenes NCTC 8 306; parameters: key to Growth: NG: No growth; 0.5: weak growth; 1: moderate growth; 2: good growth; key to Fluo. / Color / Color post-acid.: —: no color
Protocol: as §1, §2, §3

[4] = test system: Yersinia enterocolitica NCTC 11 176; parameters: key to Growth: NG: No growth; 0.5: weak growth; 1: moderate growth; 2: good growth; key to Color: —: no color
Protocol: as §1, §2, §3

[5] = test system: Staphylococcus aureus NCTC 11 939; parameters: key to Growth: NG: No growth; 0.5: weak growth; 1: moderate growth; 2: good growth; key to Fluo. / Color / Color post-acid.: —: no color
Protocol: as §1, §2, §3

[6] = test system: Staphylococcus epidermidis NCTC 11 047; parameters: key to Growth: NG: No growth; 0.5: weak growth; 1: moderate growth; 2: good growth; key to Fluo. / Color / Color post-acid.: —: no color
Protocol: as §1, §2, §3

[7] = test system: Pseudomonas aeruginosa NCTC 10 662; parameters: key to Growth: NG: No growth; 0.5: weak growth; 1: moderate growth; 2: good growth; key to Color: —: no color
Protocol: as §1, §2, §3

[8] = test system: Listeria monocytogenes NCTC 11 994; parameters: key to Growth: NG: No growth; 0.5: weak growth; 1: moderate growth; 2: good growth; key to Fluo. / Color / Color post-acid.: —: no color
Protocol: as §1, §2, §3

[9] = test system: Bacillus subtilis NCTC 9 372; parameters: key to Growth: NG: No growth; 0.5: weak growth; 1: moderate growth; 2: good growth; key to Fluo. / Color / Color post-acid.: —: no color
Protocol: as §1, §2, §3

[10] = test system: Providencia rettgeri NCTC 7 475; parameters: key to Growth: NG: No growth; 0.5: weak growth; 1: moderate growth; 2: good growth; key to Color: —: no color
Protocol: as §1, §2, §3

[11] = test system: Enterococcus faecium NCTC 7 171; parameters: key to Growth: NG: No growth; 0.5: weak growth; 1: moderate growth; 2: good growth; key to Fluo. / Color / Color post-acid.: —: no color
Protocol: as §1, §2, §3

[12] = test system: Enterobacter cloacae NCTC 11 936; parameters: key to Growth: NG: No growth; 0.5: weak growth; 1: moderate growth; 2: good growth
Protocol: as §1, §2, §3

[13] = test system: Serratia marcescens NCTC 10 211; parameters: key to Growth: NG: No growth; 0.5: weak growth; 1: moderate growth; 2: good growth
Protocol: as §1, §2, §3

[14] = test system: Salmonella typhimurium NCTC 74; parameters: key to Growth: NG: No growth; 0.5: weak growth; 1: moderate growth; 2: good growth; key to Color: —: no color
Protocol: as §1, §2, §3

[15] = test system: Enterococcus faecalis NCTC 775; parameters: key to Growth: NG: No growth; 0.5: weak growth; 1: moderate growth; 2: good growth; key to Fluo. / Color / Color post-acid.: —: no color
Protocol: as §1, §2, §3

[16] = test system: Staphylococcus aureus NCTC 6 571; parameters: key to Growth: NG: No growth; 0.5: weak growth; 1: moderate growth; 2: good growth; key to Fluo. / Color / Color post-acid.: —: no color
Protocol: as §1, §2, §3

[17] = test system: Escherichia coli NCTC 10 418; parameters: key to Growth: NG: No growth; 0.5: weak growth; 1: moderate growth; 2: good growth
Protocol: as §1, §2, §3

For `C[n+]1ccc(C=Cc2ccc(NC(=O)[C@@H](N)CC(N)=O)cc2)c2ccccc21.O=C(O)C(F)(F)F.O=C([O-])C(F)(F)F` [Asn-ASQM^+, L-asparaginyl-4-(4′-amidostyryl)-N-methylquinolinium-bis-TFA], the Color ([1]; 80 mg in 400 ml Columbia) was “—”, the Growth ([1]; 80 mg in 400 ml Columbia) was 2 and the Color ([2]; 80 mg in 400 ml Columbia) was “—”. For the same molecule, the Growth ([2]; 80 mg in 400 ml Columbia) was 0.5, the Color ([3]; 80 mg in 400 ml Columbia) was “—” and the Color ([4]; 80 mg in 400 ml Columbia) was “—”. The Growth ([4]; 80 mg in 400 ml Columbia) was 2, the Color ([5]; 80 mg in 400 ml Columbia) was “Orange” and the Growth ([5]; 80 mg in 400 ml Columbia) was 2. For the same molecule, the Color ([6]; 80 mg in 400 ml Columbia) was “—”, the Color ([7]; 80 mg in 400 ml Columbia) was “Pale orange” and the Growth ([7]; 80 mg in 400 ml Columbia) was 2. The Color ([8]; 80 mg in 400 ml Columbia) was “—”, the Growth ([8]; 80 mg in 400 ml Columbia) was 2 and the Color ([9]; 80 mg in 400 ml Columbia) was “Orange”. The Growth ([9]; 80 mg in 400 ml Columbia) was 2, the Color ([10]; 80 mg in 400 ml Columbia) was “—” and the Growth ([10]; 80 mg in 400 ml Columbia) was 2. The Color ([11]; 80 mg in 400 ml Columbia) was “—”, the Growth ([11]; 80 mg in 400 ml Columbia) was 2 and the Color ([12]; 80 mg in 400 ml Columbia) was “Pale orange”. For the same molecule, the Growth ([12]; 80 mg in 400 ml Columbia) was 2, the Color ([13]; 80 mg in 400 ml Columbia) was “Pale orange” and the Growth ([13]; 80 mg in 400 ml Columbia) was 2. The Color ([14]; 80 mg in 400 ml Columbia) was “—”, the Growth ([14]; 80 mg in 400 ml Columbia) was 2 and the Color ([15]; 80 mg in 400 ml Columbia) was “—”. The Growth ([15]; 80 mg in 400 ml Columbia) was 2, the Color ([16]; 80 mg in 400 ml Columbia) was “—” and the Growth ([16]; 80 mg in 400 ml Columbia) was 0.5. For the same molecule, the Color ([17]; 80 mg in 400 ml Columbia) was “Pale orange” and the Growth ([17]; 80 mg in 400 ml Columbia) was 2.
For `C[n+]1ccc(C=Cc2ccc(NC(=O)CC[C@H](N)C(=O)O)cc2)c2ccccc21.Cl.[Cl-]` [λ-Glu-ASQM^+, L-gamma-glutamyl-4-(4′-amidostyryl)-N-methylquinolinium (dichloride)], the Color ([1]; 40 mg in 400 ml Columbia) was “—”, the Growth ([1]; 40 mg in 400 ml Columbia) was 1 and the Color ([2]; 40 mg in 400 ml Columbia) was “—”. For the same molecule, the Growth ([2]; 40 mg in 400 ml Columbia) was 1, the Color ([3]; 40 mg in 400 ml Columbia) was “—” and the Growth ([3]; 40 mg in 400 ml Columbia) was 1. For the same molecule, the Color ([4]; 40 mg in 400 ml Columbia) was “—”, the Growth ([4]; 40 mg in 400 ml Columbia) was 2 and the Color ([5]; 40 mg in 400 ml Columbia) was “—”. The Growth ([5]; 40 mg in 400 ml Columbia) was 1, the Color ([6]; 40 mg in 400 ml Columbia) was “—” and the Growth ([6]; 40 mg in 400 ml Columbia) was 1. The Color ([7]; 40 mg in 400 ml Columbia) was “Orange”, the Growth ([7]; 40 mg in 400 ml Columbia) was 2 and the Color ([8]; 40 mg in 400 ml Columbia) was “—”. The Growth ([8]; 40 mg in 400 ml Columbia) was 1, the Color ([9]; 40 mg in 400 ml Columbia) was “—” and the Growth ([9]; 40 mg in 400 ml Columbia) was 1. The Color ([10]; 40 mg in 400 ml Columbia) was “Orange”, the Growth ([10]; 40 mg in 400 ml Columbia) was 2 and the Color ([11]; 40 mg in 400 ml Columbia) was “—”. The Growth ([11]; 40 mg in 400 ml Columbia) was 1, the Color ([12]; 40 mg in 400 ml Columbia) was “Orange” and the Growth ([12]; 40 mg in 400 ml Columbia) was 2. For the same molecule, the Color ([13]; 40 mg in 400 ml Columbia) was “Orange”, the Growth ([13]; 40 mg in 400 ml Columbia) was 2 and the Color ([14]; 40 mg in 400 ml Columbia) was “Orange”. The Growth ([14]; 40 mg in 400 ml Columbia) was 2, the Color ([15]; 40 mg in 400 ml Columbia) was “—” and the Growth ([15]; 40 mg in 400 ml Columbia) was 1. The Color ([16]; 40 mg in 400 ml Columbia) was “—”, the Growth ([16]; 40 mg in 400 ml Columbia) was 1 and the Color ([17]; 40 mg in 400 ml Columbia) was “Orange”. For the same molecule, the Growth ([17]; 40 mg in 400 ml Columbia) was 2.
With `C[n+]1ccc(C=Cc2ccc(NC(=O)[C@@H](N)Cc3ccc(O)cc3)cc2)c2ccccc21.Cl.[Cl-]` [Tyr-ASQM^+, L-tyrosyl-4-(4′-amidostyryl)-N-methylquinolinium dihydrochloride] the Color ([1]; 40 mg in 400 ml Columbia) was “—”, the Growth ([1]; 40 mg in 400 ml Columbia) was 0.5 and the Color ([2]; 40 mg in 400 ml Columbia) was “—”. The Growth ([2]; 40 mg in 400 ml Columbia) was “NG”, the Color ([3]; 40 mg in 400 ml Columbia) was “—” and the Growth ([3]; 40 mg in 400 ml Columbia) was “NG”. The Growth ([4]; 40 mg in 400 ml Columbia) was 2, the Color ([5]; 40 mg in 400 ml Columbia) was “—” and the Growth ([5]; 40 mg in 400 ml Columbia) was “NG”. For the same molecule, the Color ([6]; 40 mg in 400 ml Columbia) was “—”, the Growth ([6]; 40 mg in 400 ml Columbia) was 0.5 and the Color ([7]; 40 mg in 400 ml Columbia) was “—”. For the same molecule, the Growth ([7]; 40 mg in 400 ml Columbia) was 2, the Color ([8]; 40 mg in 400 ml Columbia) was “—” and the Growth ([8]; 40 mg in 400 ml Columbia) was 1. The Color ([9]; 40 mg in 400 ml Columbia) was “—”, the Growth ([9]; 40 mg in 400 ml Columbia) was 1 and the Growth ([10]; 40 mg in 400 ml Columbia) was 2. For the same molecule, the Color ([11]; 40 mg in 400 ml Columbia) was “—”, the Growth ([11]; 40 mg in 400 ml Columbia) was 1 and the Color ([12]; 40 mg in 400 ml Columbia) was “Orange”. For the same molecule, the Growth ([12]; 40 mg in 400 ml Columbia) was 2, the Color ([13]; 40 mg in 400 ml Columbia) was “Orange” and the Growth ([13]; 40 mg in 400 ml Columbia) was 2. For the same molecule, the Growth ([14]; 40 mg in 400 ml Columbia) was 2, the Growth ([15]; 40 mg in 400 ml Columbia) was 1 and the Color ([16]; 40 mg in 400 ml Columbia) was “—”. For the same molecule, the Growth ([16]; 40 mg in 400 ml Columbia) was “NG”, the Color ([17]; 40 mg in 400 ml Columbia) was “Orange” and the Growth ([17]; 40 mg in 400 ml Columbia) was 2.
